Laboratory results from ChEMBL document CHEMBL1145268, “Synthesis and evaluation of 6-hydroxy-7-methoxy-4-chromanone- and chroman-2-carboxamides as antioxidants” (Bioorg Med Chem Lett, 2005).

Key:
Rattus norvegicus [1] = species: Rattus norvegicus; assay: Inhibition concentration against lipid peroxidation initiated by [Fe2+] and L-ascorbic acid in rat brain homogenates; assay type: functional
Rattus norvegicus [2] = species: Rattus norvegicus; assay: Inhibition concentration against DPPH radical scavenging activity […] was determined; assay type: functional

SMILES	IC50 (Rattus norvegicus [1]) [µM]	IC50 (Rattus norvegicus [2]) [µM]
COc1cc2c(cc1O)CCC(C(=O)O)O2 (stereo unspecified)	> 300	16.8
COc1cc2c(cc1O)C(=O)CC(C(=O)NCc1ccccc1)O2 (stereo unspecified)	> 300	118
COc1cc2c(cc1O)CCC(C(=O)NCc1ccccc1)O2 (stereo unspecified)	16.6	21.7
CCCCNC(=O)C1CCc2cc(O)c(OC)cc2O1 (stereo unspecified)	51.3	24.8
Cc1c(C)c2c(c(C)c1O)CCC(C)(C(=O)O)O2 (stereo unspecified) [TROLOX]	166	18.2
COc1cc2c(cc1O)CCC(C(=O)Nc1ccc([N+](=O)[O-])cc1)O2 (stereo unspecified)	3.8	40.1
COc1cc2c(cc1O)CCC(C(=O)Nc1ccccc1)O2 (stereo unspecified)	6.9	24.9
CCCNC(=O)C1CCc2cc(O)c(OC)cc2O1 (stereo unspecified)	119	42.9

Next, values leading:

IC50 (Rattus norvegicus [1]) [µM]	IC50 (Rattus norvegicus [2]) [µM]	SMILES
293	119	COc1cc2c(cc1O)C(=O)CC(C(=O)Nc1ccccc1)O2 (stereo unspecified)
> 300	104	COc1cc2c(cc1O)C(=O)CC(C(=O)O)O2 (stereo unspecified)
> 300	214	COc1cc2c(cc1O)C(=O)CC(C(N)=O)O2 (stereo unspecified)
> 300	80.8	CCCNC(=O)C1CC(=O)c2cc(O)c(OC)cc2O1 (stereo unspecified)
177	66.4	CCCCNC(=O)C1CC(=O)c2cc(O)c(OC)cc2O1 (stereo unspecified)
